# Results reported in patent US10889849B2, “Oxidized glutathione assay” (PROMEGA CORPORATION, priority 2010, dated 2021).
# Experiments:
# S. japonica GST (Sigma) = target: T1, S. japonica GST (Sigma) (Schistosoma japonicum, UniProt P08515); experiment: Two step luminescent test of GST-3 as GST substrate, S. japonica GST; assay type: biochemical
# T1 construct: purchased Sigma
# Method: (§1) In the first step, GST-3 was added to a mixture containing a GST enzyme with or without glutathione. At different times after reaction initiation, a portion of the reaction was mixed with a luciferase reaction mixture. Reactions in which light production increased over time indicate that the derivative, GST-3, is a substrate for GST and can be used in an assay to detect GST and/or reduced glutathione (GSH).
# (§2) Various GST enzyme forms were used to test the use of GST-3 as a substrate for GST to detect GST or GSH. All components except for the GST enzyme were added.
# porcine GST (Sigma) = experiment: Two step luminescent test of GST-3 as GST substrate, porcine GST; assay type: biochemical
# Method: as §1, §2
# equine GST (Sigma) = experiment: Two step luminescent test of GST-3 as GST substrate, equine GST; assay type: biochemical
# Method: as §1, §2
# [1] = Two step luminescent test of GST-3, reactions without GST enzyme; assay type: biochemical
# Method: as §1, §2
# [2] = numerous reports (Srivastava et al. 2010); leading to cell death by apoptosis or necrosis; cited from earlier work
# GST (Promega) = target: T2, GST (Promega) (Schistosoma japonicum, UniProt P08515); experiment: GSSG measurement with other luciferin derivatives (luminescence); assay type: biochemical; details: GSSG 0.0 μM, luminescence without GSSG subtracted
# T2 construct: purchased Promega
# T2 sequence (P08515 whole entry): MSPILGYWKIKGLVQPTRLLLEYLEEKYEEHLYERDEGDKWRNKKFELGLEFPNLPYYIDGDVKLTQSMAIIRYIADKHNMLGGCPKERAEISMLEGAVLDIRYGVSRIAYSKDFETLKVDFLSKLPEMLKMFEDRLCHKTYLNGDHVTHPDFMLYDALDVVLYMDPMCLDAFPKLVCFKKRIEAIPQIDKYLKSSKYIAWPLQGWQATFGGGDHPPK
# Method: Oxidized glutathione was serially diluted from a 10 mM stock in water to 0, 0.1, 0.5 and 2.5 uM into three different 96-well luminometer plates with duplicate reactions performed. A 30 μl sample of the GST 30 stock was diluted to 3 ml with GSH Glo Reaction Buffer (Promega), and 25 μl added to one of the plates (“30”). A 30 μl sample of GST 28 was diluted to 3 ml with GSH Glo Reaction Buffer, and 25 μl added to a second plate (“28”). A 110 μL sample of GST-22 was diluted to 3 ml with GSH Glo Reaction Buffer, and 25 μl added to the third plate (“GST-22” or “NT”). 50 μl of GSH Glo Reaction Buffer was then added to half the samples of each plate. 25 μl GSH Glo Reaction Buffer with DTT (150 μl of 100 mM DTT to 15 ml of GSH Glo Reaction Buffer) was added to the other half of the samples in each of the plates.
# A 60 μl sample of GST (Promega) was diluted to 1 ml with GSH Glo Reaction Buffer, and 50 μl added to duplicate columns of each plate. […] The resulting luminescence was collected, and the duplicates averaged. The luminescence measured in the absence of GSSG was subtracted from that of the three GSSG concentrations, and the resulting values are presented in Table 6.
# GST M = experiment: Fluorescent detection of glutathione using Coumarin derivatives, GST M; assay type: biochemical; details: images at 1, 3, 5 and 20 minutes post GST enzyme addition
# GST A = experiment: Fluorescent detection of glutathione using Coumarin derivatives, GST A; assay type: biochemical; details: images at 1, 3, 5 and 20 minutes post GST enzyme addition
# Method: (§3) A Prionex® solution was made by mixing 200 μl of 10% Prionex® (Sigma) with 9.8 ml of 10 mM potassium phosphate buffer, pH 7.4, and 75 μl added to all wells of a 96-well, microtiter plate (“sample plate”). Stock solutions (2 mg/ml) of the GST enzymes GST (Promega Corp. V689B), GST A, GST B, and GST P (purified to have less than 1 mole of GSH per mole of protein) were diluted by addition of 12 ul of the enzyme to 150 ul of 10 mM Potassium Phosphate buffer pH 7.4/Prionex solution. These diluted stocks were then added to the wells. 75 ul of the diluted stocks were added to the wells in row A, and 75 ul transferred from row A through to row H to generate 1:1 serially diluted enzyme solutions.
# (§4) To a different, 96-well microtiter plate, 25 μl of diluted PBI 4153 (25 μl 1 mg/ml solution of PBI 4153 with 5 ml of 10 mM potassium phosphate pH 7.4) was added to wells A1-H10 of the plate (“4153”). […]
# (§5) If one or more of the GST enzyme forms can catalyze the Coumarin compound in the presence of glutathione, the samples containing a GST enzyme form will have an increase in fluorescence. The better the GST enzyme form can utilize the Coumarin derivative, the more rapid the increase in fluorescence, and the lower the concentrations of GST enzyme needed to be able to produce a substantial increase in fluorescence over time.
# [3] = target: T3, GST (Promega Corp. V689B) (Schistosoma japonicum, UniProt P08515); experiment: Fluorescent detection of glutathione using Coumarin derivatives, GST from Promega; assay type: biochemical; details: images at 1, 3, 5 and 20 minutes post GST enzyme addition
# T3 construct: purchased Promega Corp. V689B
# Method: as §3, §4, §5
# GST P = GST P (Homo sapiens, UniProt P09211); experiment: Fluorescent detection of glutathione using Coumarin derivatives, GST P; assay type: biochemical; details: images at 1, 3, 5 and 20 minutes post GST enzyme addition
# Sequence of GST P (P09211 whole entry): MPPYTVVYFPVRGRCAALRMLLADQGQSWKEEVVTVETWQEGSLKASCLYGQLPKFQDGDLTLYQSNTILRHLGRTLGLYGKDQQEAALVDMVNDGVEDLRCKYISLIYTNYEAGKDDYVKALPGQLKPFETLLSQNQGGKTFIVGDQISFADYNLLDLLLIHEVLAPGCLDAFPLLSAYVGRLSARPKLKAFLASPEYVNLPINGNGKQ
# Method: as §3, §4, §5
# [4] = Fluorescent detection using Coumarin derivatives, control wells with only buffer (no GST); assay type: biochemical; details: reduced glutathione present, 1, 3, 5 and 20 minutes
# Method: as §3, §4, §5
# T1 sequence (P08515 whole entry): as the sequence (P08515 whole entry) above
smiles,measurement,setting,value
"O=C(O)[C@H]1CSC(c2ccc3cc(Oc4ccc(C(F)(F)F)cc4[N+](=O)[O-])ccc3n2)=N1 [GST-3, 6-(2 nitro-4-trifluoromethyl-phenoxy)quinolinyl-luciferin]",Luminescence values (RLUs),"S. japonica GST (Sigma); reaction 3: S. japonica GST, no glutathione, 0.1 minutes",32.67 RLUs
same,Luminescence values (RLUs),"S. japonica GST (Sigma); reaction 3: S. japonica GST, no glutathione, 5 minutes",32.42 RLUs
same,Luminescence values (RLUs),"S. japonica GST (Sigma); reaction 3: S. japonica GST, no glutathione, 10 minutes",38.65 RLUs
same,Luminescence values (RLUs),"S. japonica GST (Sigma); reaction 3: S. japonica GST, no glutathione, 15 minutes",33.82 RLUs
same,Luminescence values (RLUs),"S. japonica GST (Sigma); reaction 4: S. japonica GST with glutathione, 0.1 minutes",32.57 RLUs
same,Luminescence values (RLUs),"S. japonica GST (Sigma); reaction 4: S. japonica GST with glutathione, 5 minutes",40.79 RLUs
same,Luminescence values (RLUs),"S. japonica GST (Sigma); reaction 4: S. japonica GST with glutathione, 10 minutes",48.64 RLUs
same,Luminescence values (RLUs),"S. japonica GST (Sigma); reaction 4: S. japonica GST with glutathione, 15 minutes",61.54 RLUs
same,Luminescence values (RLUs),"porcine GST (Sigma); reaction 5: porcine GST, no glutathione, 0.1 minutes",46.95 RLUs
same,Luminescence values (RLUs),"porcine GST (Sigma); reaction 5: porcine GST, no glutathione, 5 minutes",51.85 RLUs
same,Luminescence values (RLUs),"porcine GST (Sigma); reaction 5: porcine GST, no glutathione, 10 minutes",51.15 RLUs
same,Luminescence values (RLUs),"porcine GST (Sigma); reaction 5: porcine GST, no glutathione, 15 minutes",48.41 RLUs
same,Luminescence values (RLUs),"porcine GST (Sigma); reaction 6: porcine GST with glutathione, 0.1 minutes",71.1 RLUs
same,Luminescence values (RLUs),"porcine GST (Sigma); reaction 6: porcine GST with glutathione, 5 minutes",269.1 RLUs
same,Luminescence values (RLUs),"porcine GST (Sigma); reaction 6: porcine GST with glutathione, 10 minutes",463.2 RLUs
same,Luminescence values (RLUs),"porcine GST (Sigma); reaction 6: porcine GST with glutathione, 15 minutes",619.3 RLUs
same,Luminescence values (RLUs),"equine GST (Sigma); reaction 7: equine GST, no glutathione, 0.1 minutes",30.42 RLUs
same,Luminescence values (RLUs),"equine GST (Sigma); reaction 7: equine GST, no glutathione, 5 minutes",32.98 RLUs
same,Luminescence values (RLUs),"equine GST (Sigma); reaction 7: equine GST, no glutathione, 10 minutes",38.75 RLUs
same,Luminescence values (RLUs),"equine GST (Sigma); reaction 7: equine GST, no glutathione, 15 minutes",38.39 RLUs
same,Luminescence values (RLUs),"equine GST (Sigma); reaction 8: equine GST with glutathione, 0.1 minutes",252.2 RLUs
same,Luminescence values (RLUs),"equine GST (Sigma); reaction 8: equine GST with glutathione, 5 minutes",3662 RLUs
same,Luminescence values (RLUs),"equine GST (Sigma); reaction 8: equine GST with glutathione, 10 minutes",7629 RLUs
same,Luminescence values (RLUs),"equine GST (Sigma); reaction 8: equine GST with glutathione, 15 minutes",9324 RLUs
same,Luminescence values (RLUs),"[1]; reaction 1: no GST, no glutathione, 0.1 minutes",33.26 RLUs
same,Luminescence values (RLUs),"[1]; reaction 1: no GST, no glutathione, 5 minutes",38.2 RLUs
same,Luminescence values (RLUs),"[1]; reaction 1: no GST, no glutathione, 10 minutes",32.17 RLUs
same,Luminescence values (RLUs),"[1]; reaction 1: no GST, no glutathione, 15 minutes",35.53 RLUs
same,Luminescence values (RLUs),"[1]; reaction 2: no GST, with glutathione, 0.1 minutes",35.72 RLUs
same,Luminescence values (RLUs),"[1]; reaction 2: no GST, with glutathione, 5 minutes",36.07 RLUs
same,Luminescence values (RLUs),"[1]; reaction 2: no GST, with glutathione, 10 minutes",40.85 RLUs
same,Luminescence values (RLUs),"[1]; reaction 2: no GST, with glutathione, 15 minutes",46.43 RLUs
NNC(=O)c1ccncc1 [isoniazid],Effect on the ratio of GSH to GSSG,[2],dramatically reduce the ratio of GSH to GSSG
"Cc1ccc(S(=O)(=O)Oc2ccc3nc(C4=N[C@@H](C(=O)O)CS4)sc3c2)c([N+](=O)[O-])c1 [GST-22, Luciferin 2-nitro-4-methylbenzenesulfonate]","Luminescence, GST with DTT",GST (Promega); GST with DTT,0
same,"Luminescence, No DTT",GST (Promega); without enzyme and DTT,0
same,"Luminescence, With DTT",GST (Promega); without enzyme but with DTT,0
Cc1cc(=O)oc2cc(OS(=O)(=O)c3ccc([N+](=O)[O-])cc3)ccc12 [PBI 4146],Utilization of the Coumarin compound (increase in fluorescence),GST M,can rapidly utilize the Coumarin compound
same,Utilization of the Coumarin compound (increase in fluorescence),GST A,"either did not utilize this compound or utilized it at very, very slow rate"
same,Utilization of the Coumarin compound (increase in fluorescence),[3],"can also utilize the compound, but at an even slower rate than GST M"
same,Utilization of the Coumarin compound (increase in fluorescence),GST P,"either did not utilize this compound or utilized it at very, very slow rate"
same,Increase in fluorescence in control wells,[4],no apparent increase in fluorescence
CC(=O)Nc1ccc(O)cc1 [acetaminophen],Effect on the ratio of GSH to GSSG,[2],dramatically reduce the ratio of GSH to GSSG
CC/C(=C(\c1ccccc1)c1ccc(OCCN(C)C)cc1)c1ccccc1 [tamoxifen],Effect on the ratio of GSH to GSSG,[2],dramatically reduce the ratio of GSH to GSSG
Cc1cc(=O)oc2cc(OS(=O)(=O)c3ccc([N+](=O)[O-])c4ccccc34)ccc12 [PBI 4153],Utilization of the Coumarin compound (increase in fluorescence),GST M,can rapidly utilize the Coumarin compound as a substrate
same,Utilization of the Coumarin compound (increase in fluorescence),GST A,"can also utilize the compound, but at a slower rate"
same,Utilization of the Coumarin compound (increase in fluorescence),[3],also utilized the compound but at an even slower rate than GST A
same,Utilization of the Coumarin compound (increase in fluorescence),GST P,"either did not utilize this compound or utilized it at a very, very slow rate"
same,Increase in fluorescence in control wells,[4],no apparent increase in fluorescence
